Tests used:
[1] = log P by HPLC on reversed-phase C18, LC-MS, pH 2.7, formic acid (HCOOH); type: physicochemical; conditions: reversed-phase C18 HPLC column; HPLC C18, pH 2.7, 0.1% aqueous formic acid/acetonitrile
Experimental: The log P values reported in the table above and in the preparation examples were determined in accordance with EEC Directive 79/831 Annex V.A8 by HPLC (High Performance Liquid Chromatography) on reversed-phase columns (C18), with the following methods: ^[b] The determination is made by LC-MS in the acid range at pH 2.7 with 0.1% aqueous formic acid and acetonitrile (containing 0.1% formic acid) as eluents; linear gradient from 10% acetonitrile to 95% acetonitrile. Calibration took place with unbranched alkan-2-ones (having 3 to 16 carbon atoms) of known log P values (log P values determined from the retention times by linear interpolation between two successive alkanones).

[2] = tested on: greenhouse red spidermite (Tetranychus urticae); experiment: Tetranychus test; OP resistant (TETRUR spray treatment), Example 3; type: in vivo; conditions: foliar, 144 h, spray on bean leaf discs, after 6 days, read-out: effect (mites killed)
Experimental: Solvents: 78.0 parts by weight of acetone • • 1.5 parts by weight of dimethylformamide Emulsifier: 0.5 part by weight of alkylaryl polyglycol ether An appropriate preparation of active compound is prepared by mixing 1 part by weight of active compound with the stated amounts of solvent and emulsifier and diluting the concentrate with emulsifier-containing water to the desired concentration. Leaf discs of bean (Phaseolus vulgaris) infested by all stages of the greenhouse red spidermite (Tetranychus urticae) are sprayed with a preparation of active compound at the desired concentration. After 6 days, the effect in % is determined. Here, 100% means that all of the mites have been killed; 0% means that no mites have been killed.

Boophilus microplus = Boophilus microplus test (BOOPMI injection); type: in vivo; conditions: Rhipicephalus microplus, 168 h; 20 μg/animal, injection into abdomen, after 7 days; read-out: activity (no fertile eggs laid)
Experimental: Solvent: Dimethyl Sulphoxide An appropriate preparation of active compound is prepared by mixing 10 mg of active compound with 0.5 ml of solvent and diluting the concentrate with solvent to the desired concentration. The solution of active compound is injected into the abdomen (Boophilus microplus) and the animals are transferred into dishes and kept in a controlled atmosphere. The activity is assessed on the basis of deposition of fertile eggs. After 7 days, the effect in % is determined. Here, 100% means that none of the ticks has laid fertile eggs.

[3] = tested on: larvae of the mustard beetle (Phaedon cochleariae); experiment: Phaedon test (PHAECO spray treatment); type: in vivo; conditions: foliar, 168 h, spray on Chinese cabbage leaf discs, after 7 days, read-out: effect (beetle larvae killed)
Experimental: Solvents: 78.0 parts by weight of acetone • • 1.5 parts by weight of dimethylformamide Emulsifier: 0.5 part by weight of alkylaryl polyglycol ether An appropriate preparation of active compound is prepared by mixing 1 part by weight of active compound with the stated amounts of solvent and emulsifier and diluting the concentrate with emulsifier-containing water to the desired concentration. Leaf discs of Chinese cabbage (Brassica pekinensis) are sprayed with a preparation of active compound at the desired concentration and, after they have dried, are populated with larvae of the mustard beetle (Phaedon cochleariae). After 7 days, the effect in % is determined. Here, 100% means that all of the beetle larvae have been killed; 0% means that no beetle larvae have been killed.

| SMILES | chromatographic logP [1] | pest or weed control at 500 g/ha [2] | pest or weed control at 100 g/ha [2] | pest or weed control at 0.02 mg (Boophilus microplus) | pest or weed control at 500 g/ha [3] |
| --- | --- | --- | --- | --- | --- |
| Cc1ccc(N/N=C(\N)C(F)F)c(Cl)c1 [X-1] | 2.5 | – | – | – | – |
| Cc1ccc(-n2cnc(C(F)F)n2)cc1SSc1cc(-n2cnc(C(F)F)n2)ccc1C [II-A-7] | 4.19 | – | – | – | – |
| Cc1cc(F)c(-n2cnc(C(F)F)n2)cc1[S+]([O-])CC#N (stereo not shown) [I-A-26] | 1.4 | 100% | – | – | – |
| Cc1cc(C)c([S+]([O-])CC(F)F)cc1-n1cnc(C(F)F)n1 (stereo not shown) [I-A-3] | 1.9 | – | 100% | 100% | – |
| Cc1ccc(-n2cnc(C(F)F)n2)cc1SCC(F)(F)F [I-A-5] | 3.24 | – | 100% | 100% | 100% |
| Cc1cc(C)c(-n2cnc(C(F)F)n2)cc1SCC(F)(F)C(F)(F)F [I-A-37] | 3.86 | – | 100% | – | – |
| Cc1cc(C)c([S+]([O-])CC(C)C)cc1-n1cnc(C(F)(F)C(F)(F)F)n1 (stereo not shown) [I-A-39] | 3.46 | – | 100% | 100% | – |
| Cc1ccc(NNC(=O)C(F)(F)C(F)F)c(C)c1 [V-3] | 2.46 | – | – | – | – |
| Cc1cc(C)c(-n2cnc(C(F)(F)C(F)(F)F)n2)cc1SCC(F)(F)F [I-A-28] | 4.49 | – | 100% | – | – |
| Cc1cc(C)c([S+]([O-])CC(F)(F)C(F)(F)F)cc1-n1cnc(C(F)F)n1 (stereo not shown) [I-A-35] | 2.72 | – | 100% | – | – |
| Cc1ccc(-n2cnc(C(F)F)n2)c(Cl)c1 [IV-A-4] | 2.46 | – | – | – | – |
| Cc1ccc(-n2cnc(C(F)F)n2)c(F)c1 [IV-A-3] | 2.31 | 90% | – | – | – |
| Cc1cc(C)c(-n2cnc(C(F)(F)C(F)(F)F)n2)cc1SSc1cc(-n2cnc(C(F)(F)C(F)(F)F)n2)c(C)cc1C [II-A-4] | 6.36 | – | – | – | – |
| Cc1cc(C)c(-n2cnc(C(F)(F)C(F)F)n2)cc1SSc1cc(-n2cnc(C(F)(F)C(F)F)n2)c(C)cc1C [II-A-5] | 5.22 | – | – | – | – |
| Cc1cc(F)c(-n2cnc(C(F)F)n2)cc1SSc1cc(-n2cnc(C(F)F)n2)c(F)cc1C [II-A-2] | 4.33 | – | – | – | – |
| Cc1cc(C)c(-n2cnc(C(F)(F)C(F)(F)Cl)n2)cc1SSc1cc(-n2cnc(C(F)(F)C(F)(F)Cl)n2)c(C)cc1C [II-A-6] | 6.62 | – | – | – | – |
| Cc1ccc(NNC(=O)C(F)F)cc1 [V-4] | 1.46 | – | – | – | – |
| Cc1cc(F)c(-n2cnc(C(F)F)n2)cc1SCC1CC1 [I-A-31] | 3.81 | – | 100% | – | 100% |
| Cc1cc(C)c([S+]([O-])CC2CC2)cc1-n1cnc(C(F)F)n1 (stereo not shown) [I-A-33] | 2.05 | 100% | – | – | – |
| Cc1cc(C)c([S+]([O-])CC#N)cc1-n1cnc(C(F)F)n1 (stereo not shown) [I-A-25] | 1.49 | 100% | – | – | – |
| Cc1cc(C)c([S+]([O-])CC(F)(F)C(F)F)cc1-n1cnc(C(F)F)n1 (stereo not shown) [I-A-32] | 2.35 | – | 100% | – | – |
| Cc1cc(C)c(-n2cnc(C(F)(F)C(F)(F)F)n2)cc1SCC(C)C [I-A-34] | 5.58 | – | 100% | – | – |
| Cc1cc(F)c(-n2cnc(C(F)F)n2)cc1SCC#N [I-A-24] | 2.31 | 100% | – | – | – |
| Cc1ccc(NNC(=O)C(F)F)c(F)c1 [V-5] | 1.66 | – | – | – | – |
| Cc1cc(C)c([S+]([O-])CC2CC2)cc1-n1cnc(C(F)(F)C(F)(F)F)n1 (stereo not shown) [I-A-11] | 3.11 | – | 100% | 100% | – |
| CSc1cc(-n2cnc(C(F)F)n2)c(C)cc1C [I-A-18] | 3.01 | 100% | – | – | – |
| Cc1cc(C)c(-n2cnc(C(F)F)n2)cc1SCC#N [I-A-20] | 2.47 | 100% | – | – | – |

| SMILES | chromatographic logP [1] | pest or weed control at 500 g/ha [2] | pest or weed control at 100 g/ha [2] | pest or weed control at 0.02 mg (Boophilus microplus) | pest or weed control at 500 g/ha [3] |
| --- | --- | --- | --- | --- | --- |
| Cc1cc(C)c(-n2cnc(C(F)F)n2)cc1SCC1CC1 [I-A-13] | 3.85 | – | 100% | – | – |
| Cc1ccc(-n2cnc(C(F)(F)C(F)(F)Cl)n2)c(C)c1 [IV-A-1] | 3.88 | – | – | – | – |
| Cc1cc(Cl)c(-n2cnc(C(F)F)n2)cc1SSc1cc(-n2cnc(C(F)F)n2)c(Cl)cc1C [II-A-3] | 4.53 | – | – | – | – |
| Cc1cc(C)c([S+]([O-])CCC(F)(F)F)cc1-n1cnc(C(F)F)n1 (stereo not shown) [I-A-17] | 2.28 | – | 100% | 100% | – |
| Cc1cc(C)c(-n2cnc(C(F)F)n2)cc1SSc1cc(-n2cnc(C(F)F)n2)c(C)cc1C [II-A-1, 1,1′-[Disulphanediylbis(4,6-dimethylbenzene-3,1-diyl)]bis[3-(difluoromethyl)-1H-1,2,4-triazole]] | 4.45 | – | – | – | – |
| Cc1cc(F)c(-n2cnc(C(F)F)n2)cc1[S+]([O-])CC(F)F (stereo not shown) [I-A-23] | 1.81 | 100% | – | – | 100% |
| Cc1cc(F)c(-n2cnc(C(F)F)n2)cc1[S+](C)[O-] (stereo not shown) [I-A-22] | 1.37 | 80% | – | – | – |
| Cc1cc(C)c([S+](C)[O-])cc1-n1cnc(C(F)F)n1 (stereo not shown) [I-A-21] | 1.46 | 80% | – | – | – |
| Cc1cc(C)c(-n2cnc(C(F)F)n2)cc1SCC(F)(F)C(F)F [I-A-19] | 3.37 | – | 100% | – | – |
| Cc1ccc(-n2cnc(C(F)(F)C(F)F)n2)c(C)c1 [IV-A-6] | 3.08 | – | – | – | – |
| Cc1cc(C)c([S+]([O-])CC(F)F)cc1-n1cnc(C(F)(F)C(F)(F)F)n1 (stereo not shown) [I-A-8] | 2.95 | – | 100% | 100% | – |
| Cc1cc(F)c(-n2cnc(C(F)F)n2)cc1[S+]([O-])CC1CC1 (stereo not shown) [I-A-29] | 1.96 | 100% | – | – | – |
| Cc1cc(C)c([S+]([O-])CC(F)(F)F)cc1-n1cnc(C(F)(F)C(F)(F)F)n1 (stereo not shown) [I-A-10] | 3.27 | 100% | – | 100% | 100% |
| Cc1ccc(-n2cnc(C(F)F)n2)cc1 [IV-A-7] | 2.26 | – | – | – | – |
| N/C(=N\Nc1ccc(F)cc1)C(F)F [X-3] | 1.34 | – | – | – | – |
| Cc1ccc(NNC(=O)C(F)(F)C(F)(F)F)c(C)c1 [V-2] | 2.91 | – | – | – | – |
| Cc1ccc(-n2cnc(C(F)F)n2)c(C)c1 [IV-A-2, 3-(Difluoromethyl)-1-(2,4-dimethylphenyl)-1H-1,2,4-triazole] | 2.43 | 80% | – | – | – |
| Cc1cc(C)c(-n2cnc(C(F)F)n2)cc1SCCC(F)(F)F [I-A-36] | 3.68 | – | 100% | 100% | – |
| Cc1ccc(N/N=C(\N)C(F)(F)C(F)(F)F)c(C)c1 [X-2] | 3.65 | – | – | – | – |
| Cc1cc(C)c(-n2cnc(C(F)(F)C(F)(F)F)n2)cc1SCC1CC1 [I-A-14] | 5.11 | – | 100% | – | – |
| Cc1cc(C)c([S+]([O-])CC(F)F)cc1-n1cnc(C(F)(F)C(F)(F)Cl)n1 (stereo not shown) [I-A-12] | 3.02 | – | 100% | 100% | 100% |
| Cc1ccc(NNC(=O)C(F)(F)C(F)(F)Cl)c(C)c1 [V-1] | 2.96 | 90% | – | – | – |
| Cc1cc(F)c(-n2cnc(C(F)F)n2)cc1SCC(F)F [I-A-6] | 2.94 | – | 100% | – | 100% |
| CSc1cc(-n2cnc(C(F)F)n2)c(F)cc1C [I-A-38] | 2.93 | 100% | – | – | – |
| Cc1ccc(-n2cnc(C(F)(F)C(F)(F)F)n2)c(C)c1 [IV-A-5] | 3.78 | – | – | – | – |
| Cc1cc(C)c(-n2cnc(C(F)(F)C(F)(F)F)n2)cc1SCC(F)F [I-A-7] | 4.22 | – | 100% | 100% | – |

Source: patent US8632767B2, “3-[1-(3-haloalkyl)triazolyl]phenyl sulphide derivatives as acaricides and insecticides” (Bayer Intellectual Property GmbH, priority 2009, dated 2014)
